{"source": "paper PMC11249012", "about": "(Journal of Medicinal Chemistry, 2024)", "molecular_target": "T1, HDAC10 (Homo sapiens, UniProt Q969S8)", "T1 sequence (Q969S8 1-669)": "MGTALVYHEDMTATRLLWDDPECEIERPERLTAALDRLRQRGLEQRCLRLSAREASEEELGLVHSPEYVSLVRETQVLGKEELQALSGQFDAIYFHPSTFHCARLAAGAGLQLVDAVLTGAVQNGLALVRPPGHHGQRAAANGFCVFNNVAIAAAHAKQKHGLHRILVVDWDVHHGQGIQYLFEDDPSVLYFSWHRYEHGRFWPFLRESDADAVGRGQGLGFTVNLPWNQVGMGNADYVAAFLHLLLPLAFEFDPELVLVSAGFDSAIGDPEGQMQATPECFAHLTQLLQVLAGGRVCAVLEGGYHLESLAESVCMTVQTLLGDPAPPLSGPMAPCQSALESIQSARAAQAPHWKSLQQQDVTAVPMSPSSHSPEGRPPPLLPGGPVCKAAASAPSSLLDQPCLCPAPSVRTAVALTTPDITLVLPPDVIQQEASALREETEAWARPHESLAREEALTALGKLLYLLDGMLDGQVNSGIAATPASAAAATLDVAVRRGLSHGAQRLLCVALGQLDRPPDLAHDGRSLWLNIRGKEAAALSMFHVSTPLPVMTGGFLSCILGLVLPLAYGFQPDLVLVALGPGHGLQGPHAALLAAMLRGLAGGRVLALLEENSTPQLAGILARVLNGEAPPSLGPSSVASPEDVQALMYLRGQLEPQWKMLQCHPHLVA", "assay": "Biochemical assay for HDAC inhibition, HDAC10", "conditions": "read-out: IC50 HDAC10; Table 1, purified enzyme; unit inferred", "note": "pIC50: −log10 of the molar value.", "data": [{"compound": "Cn1cc(CNCC2CCN(c3ncc(C(=O)NO)cn3)CC2)c2ccccc21", "note": "[quisinostat]", "values": [{"measurement": "pIC50", "value": 8.17}]}]}
